Values joined by “and” are separate entries in the source; they are usually repeats but may differ in a detail not shown here. Equal entries are not always repeated.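 Cells were grown in 96-well plates and exposed to each compound for 48 hours at five concentrations; endpoints were interpolated linearly between bracketing concentrations, or set to the highest concentration if not reached. The concentration for 50% growth inhibition is given as GI50. Definition used: TGI = concentration required for complete inhibition of growth.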
How the values were obtained:
Assay in all cases: DTP human tumour cell line panel, 48 h
[1] = tested on: M14 melanoma
[2] = tested on: HCC-2998 colon
[3] = tested on: HCT-15 colon
[4] = tested on: UACC-62 melanoma
[5] = tested on: 786-0 renal
[6] = tested on: UO-31 renal
[7] = tested on: NCI-H226 lung
[8] = tested on: A498 renal
[9] = tested on: BT-549 breast
[10] = tested on: HOP-92 NSCLC

Row | Structure (SMILES) | GI50 [1] | TGI [1] | GI50 [2] | TGI [2] | GI50 [3] | TGI [3] | GI50 [4] | TGI [4] | GI50 [5] | TGI [5] | GI50 [6] | TGI [6] | GI50 [7] | TGI [7] | GI50 [8] | TGI [8] | GI50 [9] | TGI [9] | GI50 [10] | TGI [10]
1 | NCCCNCCCCNC(=O)C(O)NC(=O)CCCCCCN=C(N)N (configuration not stated) | 2450 µM | > 3810 µM | 2720 µM | > 4260 µM | > 2640 µM | 750 µM and > 5000 µM | > 2860 µM | 750 µM and > 5000 µM | > 750 µM | > 5000 µM | 2980 µM | 619 µM and > 5000 µM | 2430 µM | 750 µM and > 5000 µM | 1500 µM | > 5000 µM | 1540 µM | 750 µM and 4950 µM | 2660 µM | 745 µM and > 4350 µM
2 | CCCCCCCc1cc2c3c(nc4ccccc42)C(=O)c2cccnc2-c3n1 | 2.5 µM | 6.9 µM | 2.93 µM | 7.56 µM | 0.97 µM | 5.58 µM | 5.41 µM | 10.1 µM | 5.1 µM | 10.5 µM | 3.85 µM | 11 µM | 6.82 µM | 16.3 µM | 6.46 µM | 17.5 µM | 16.2 µM | 33.2 µM | 6.34 µM | 17 µM
3 | Cc1ccc(O)c(NC(=O)c2ccc(CNc3ccnc(C(F)(F)F)c3)cc2)c1 | 5 µM | 24.2 µM | 7.45 µM | 23.2 µM | 5.19 µM | 76.3 µM | 1.07 µM | 13.4 µM | 5.2 µM | 47.7 µM | 1.12 µM | 13.3 µM | 4.52 µM | 38.8 µM | 14.3 µM | 37.6 µM | 3.48 µM | 28.4 µM | 5.11 µM | 29.8 µM
4 | COC(=O)[C@@H](C)C[C@H](Cc1ccccc1)NC(=O)c1csc([C@@H](C[C@H](C(C)C)N(C)C(=O)[C@@H](NC(=O)[C@H]2CCCCN2C)C2CC2)OC(C)=O)n1 | 0.000455 µM and < 0.00165 µM | < 0.00165 µM | 0.000338 µM and 0.00165 µM | > 16.5 µM | 0.00131 µM and 0.00165 µM | > 16.5 µM | – | > 16.5 µM | 0.000456 µM and 0.00165 µM | > 16.5 µM | 0.00516 µM and 0.00284 µM | > 16.5 µM | 0.009 µM and 0.00417 µM | 1.18 µM | 0.000862 µM | – | 0.000506 µM and 0.00165 µM | 0.0298 µM and 0.0146 µM | – | > 16.5 µM
5 | CCOc1ccc2nc(NC(=O)C(=O)C(c3cnc4ccccc4n3)[N+](=O)[O-])sc2c1 (configuration not stated) | – | > 100 µM | – | > 100 µM | – | > 100 µM | – | > 100 µM | – | > 100 µM | – | > 100 µM | – | > 100 µM | – | > 100 µM | – | > 100 µM | – | > 100 µM
6 | CC(=O)OCc1cc2ccccc2nc1C(Br)(Br)Br | – | 55 µM | – | 29.3 µM | – | 54.7 µM | – | 32.2 µM | – | 46 µM | – | 29.5 µM | – | 60.8 µM | – | 42.8 µM | – | 27.2 µM | – | 31.2 µM
7 | O=c1c(-c2ccccc2)coc2cc(OC/C(=N/O)c3ccccc3)ccc12 | 14.4 µM | 39.7 µM | 10.1 µM | 27.2 µM | 16.2 µM | 39.6 µM | 15.2 µM | 31.4 µM | 25.4 µM | 50.4 µM | 18.6 µM | 76.5 µM | 23.4 µM | > 100 µM | 16.5 µM | 33.4 µM | 29.8 µM | > 100 µM | 15.3 µM | 47.4 µM
8 | O=C1c2ccccc2S(=O)(=O)c2cc(-c3nn[nH]n3)ccc21 | – | > 100 µM | – | > 100 µM | – | > 100 µM | – | > 100 µM | – | > 100 µM | – | > 100 µM | – | > 100 µM | – | > 100 µM | – | > 100 µM | – | > 100 µM
9 | O=C1C(=O)c2cccnc2-c2ncccc21 | 0.159 µM | 0.441 µM | 1.32 µM | 2.92 µM | 0.185 µM | 1.42 µM | 0.201 µM | 0.514 µM | 1.22 µM | 2.5 µM | 0.159 µM | 0.486 µM | 0.696 µM | 2.05 µM | 0.199 µM | 2.21 µM | 0.242 µM | 1.19 µM | 0.175 µM | 0.618 µM
10 | CC12CCC(Br)C(C)(C)C1CC=C1C(=O)OCC1O2 (configuration not stated) | – | > 51.9 µM | – | 24.9 µM | – | 39 µM | – | 25.7 µM | – | > 48.6 µM | – | > 42.6 µM | – | 23.2 µM | – | 24.7 µM | – | 41 µM | – | 34.1 µM
11 | COc1ccc2c(c1)C(=O)c1c-2n(CCCI)c(=O)c2cc([N+](=O)[O-])ccc12 | 0.133 µM and 0.057 µM | 0.59 µM and 1.35 µM | 0.63 µM and 0.797 µM | 6.41 µM and 21.9 µM | 1.05 µM and 1.13 µM | 50 µM and 28 µM | 0.109 µM and 0.149 µM | 0.851 µM and 1.35 µM | 0.106 µM and 0.0522 µM | – | 0.36 µM and 0.0716 µM | 13.1 µM and 10.4 µM | 0.671 µM and 0.89 µM | 6.02 µM and 14.7 µM | 0.609 µM and 0.157 µM | 3.6 µM and 0.95 µM | 0.112 µM and 0.786 µM | – | 0.0738 µM and 0.715 µM | –
12 | C=CC(Cl)(CBr)CCC(Br)C(C)(C)Cl (configuration not stated) | – | 29 µM | – | 28.8 µM | – | 36.7 µM | – | 30.5 µM | – | 28.1 µM | – | 29.3 µM | – | > 100 µM | – | 27.2 µM | – | 38.6 µM | – | 39.8 µM
13 | C=C(c1ccccc1)[C@@]1(O)CC[C@@H]1N(CC#N)Cc1ccccc1 | – | 32.6 µM | – | 44.3 µM | – | 34.6 µM | – | 32.1 µM | – | 35.4 µM | – | 67.4 µM | – | > 100 µM | – | > 100 µM | – | 37.1 µM | – | 34.9 µM
14 | O=C1C(Cl)=C(NCc2ccco2)C(=O)c2ccccc21 | 4.31 µM | 12.1 µM | 21.7 µM | 50.8 µM | 4.77 µM | 56.5 µM | 3.98 µM | 13.6 µM | 29 µM | 72.3 µM | 38.5 µM | > 100 µM | 18.8 µM | > 60.7 µM | 17.7 µM | 59.2 µM | 22 µM | 50.7 µM | 23.2 µM | 62.2 µM
15 | Cn1cc(-c2ccc(-c3ccc(C4=NC5(CC5)C(=O)N4C[C@@H]4CCN(C(=O)C5CC5)C4)cc3)cc2)cn1 | 20.2 µM | > 100 µM | 15.2 µM | 29.9 µM | 2.71 µM | 43 µM | 10.2 µM | 34.5 µM | 10.5 µM | > 100 µM | 1.47 µM | > 100 µM | 16 µM | 51.2 µM | 2.16 µM | 23.7 µM | 6.09 µM | 26.1 µM | 23.6 µM | > 100 µM
16 | Cc1cn(-c2cc(NC(=O)c3ccc(C)c(Nc4nccc(-c5cccnc5)n4)c3)cc(C(F)(F)F)c2)cn1 | 1.66 µM and 1.45 µM | 5.91 µM and 4.87 µM | – | > 65 µM | 3.18 µM and 4.6 µM | > 38.3 µM | 1.65 µM and 1.09 µM | > 10 µM and 9.18 µM | > 10 µM and 2.24 µM | > 10 µM and 7.1 µM | 1.75 µM and 1.58 µM | 8.9 µM and 4.56 µM | > 10 µM and 16.2 µM | > 10 µM and 39.8 µM | > 10 µM and 4.09 µM | > 10 µM and 12.1 µM | 5.38 µM and 3.57 µM | > 10 µM and 10 µM | – | > 100 µM
17 | CSc1nc(SC)c2c(CO)c(Br)n(Cc3ccccc3)c2n1 | – | > 100 µM | – | > 100 µM | – | > 100 µM | – | 41.9 µM | – | 37.6 µM | – | 44.4 µM | – | 39.3 µM | – | 14.5 µM | – | 62.4 µM | – | 41.8 µM

Reference: PubChem BioAssay (NCI)
